Reference: PMC5118696, “Identification of inhibitors that dually target the new permeability pathway and dihydroorotate dehydrogenase in the blood stage of Plasmodium falciparum” (Scientific Reports, 2016)
Read-outs that look alike come from different tables or passages of the source.

How the values were obtained:
[1] = system: Hyp1-NLuc Plasmodium falciparum-infected erythrocytes (new permeability pathway, NPP); test: microbe, parasite or virus in culture; details: Erythrocyte, 0.33 h, read-out: Mean RLU at 28 min (As % of DMSO control)
[2] = system: Hyp1-NLuc Plasmodium falciparum-infected erythrocytes (new permeability pathway, NPP); test: microbe, parasite or virus in culture; details: Erythrocyte, 0.33 h, read-out: % of control remaining

CCOc1cc(Cl)c(C(C)NC(=O)c2ccccc2)cc1OCC (stereo not shown) [MMV665800]
activity at 2 µM [1]: 100%
activity at 2 µM [2]: 111%

CCOc1cc(Cl)c(C(C)NC(=O)c2cccc(OC)c2)cc1OCC (stereo not shown) [MMV665803]
activity at 2 µM [1]: 113%
activity at 2 µM [2]: 124%

CCOc1ccc(-c2nonc2NC(=O)c2cccc(C)c2)cc1OCC [MMV665805]
activity at 2 µM [1]: 106%
activity at 2 µM [2]: 107%

Cc1c(C)n(CC(O)CNC2CCCCC2C)c2ccccc12 (stereo not shown) [MMV665806]
activity at 2 µM [1]: 106%
activity at 2 µM [2]: 108%

O=C(Nc1cccc(C(F)(F)F)c1)c1cc(Cl)ccc1O [MMV665807]
activity at 2 µM [1]: 99%
activity at 2 µM [2]: 105%

Oc1ccc(Br)cc1CN1CCN(Cc2ccc(Cl)cc2)CC1 [MMV665809]
activity at 2 µM [1]: 93.3%
activity at 2 µM [2]: 91.7%

O=C(Nc1cccc(C2=NCCN2)c1)Nc1cccc(C2=NCCN2)c1 [MMV665810]
activity at 2 µM [1]: 85.8%
activity at 2 µM [2]: 84.4%

CCc1ccc(CNCC(O)c2ccccc2)cc1 (stereo not shown) [MMV665812]
activity at 2 µM [1]: 95.4%
activity at 2 µM [2]: 96.2%

CCOC(=O)c1cnc2ccc(OC)cc2c1NCc1ccccc1 [MMV665813]
activity at 2 µM [1]: 115%
activity at 2 µM [2]: 114%

Oc1c(C(Nc2ccccn2)c2cccc(Oc3ccccc3)c2)ccc2cccnc12 (stereo not shown) [MMV665814]
activity at 2 µM [1]: 98.8%
activity at 2 µM [2]: 98.6%

CC(C)(C)CC(C)(C)NCC(O)COc1ccc2c(c1)CCC2 (stereo not shown) [MMV665817]
activity at 2 µM [1]: 106%
activity at 2 µM [2]: 120%

COc1ccc2c(=O)cc(C(Cl)(Cl)Cl)oc2c1 [MMV665820]
activity at 2 µM [1]: 105%
activity at 2 µM [2]: 102%

COc1cccc(NC(=O)Cn2c(C)c(C#N)c3ccccc32)c1 [MMV665826]
activity at 2 µM [1]: 101%
activity at 2 µM [2]: 109%

CCOC(=O)c1cn(CC)c2cc(N3CCCCC3)c(F)cc2c1=O [MMV665827]
activity at 2 µM [1]: 104%
activity at 2 µM [2]: 100%

CC1CC2=C(CC1CNCCCN(C)C)C(C)(C)CCC2 (stereo not shown) [MMV665830]
activity at 2 µM [1]: 105%
activity at 2 µM [2]: 104%

CCOC(=O)c1c(NC(=O)c2ccccc2)sc2c(O)c(CN(CC)CC)ccc12 [MMV665831]
activity at 2 µM [1]: 103%
activity at 2 µM [2]: 103%

COc1ccc(C=C2SC(Nc3ccccc3)=NC2=O)cc1 [MMV665836]
activity at 2 µM [1]: 86.5%
activity at 2 µM [2]: 55.9%

O=C(Nc1ccc(-c2nc3ccccc3[nH]2)cc1)c1ccc(Cl)c(Cl)c1 [MMV665840]
activity at 2 µM [1]: 109%
activity at 2 µM [2]: 107%

CCCc1cc(O)c2c3c(c(=O)oc2c1)CN(C)CC3 [MMV665841]
activity at 2 µM [1]: 107%
activity at 2 µM [2]: 103%

Oc1c2c(nc3ccccc13)CCCC2 [MMV665843]
activity at 2 µM [1]: 109%
activity at 2 µM [2]: 111%

Oc1ccc(Cl)cc1CNc1nc2ccccc2[nH]1 [MMV665850]
activity at 2 µM [1]: 105%
activity at 2 µM [2]: 110%

O=C(Nc1ccc(Cl)c(Cl)c1)Nc1ccc(Cl)c(Cl)c1 [MMV665852]
activity at 2 µM [1]: 117%
activity at 2 µM [2]: 125%

CCOc1c(Cl)cc(CNC(C)C(O)c2ccccc2)cc1OC (stereo not shown) [MMV665857]
activity at 2 µM [1]: 100%
activity at 2 µM [2]: 108%

CCCCNc1nc(NC(C)(C)C)nc(NC(C)(C)C)n1 [MMV665864]
activity at 2 µM [1]: 119%
activity at 2 µM [2]: 130%

Cc1cc(Nc2ccc(C)c(Cl)c2)n2nc(C(F)(F)F)nc2n1 [MMV665874]
activity at 2 µM [1]: 107%
activity at 2 µM [2]: 106%

Cn1c(=O)n(C)c2cc(CNCCNc3ccnc4cc(Cl)ccc34)ccc21 [MMV665875]
activity at 2 µM [1]: 95.9%
activity at 2 µM [2]: 88.8%

CCC(c1ccccc1)c1nn2c(-c3cccs3)nnc2s1 (stereo not shown) [MMV665876]
activity at 2 µM [1]: 85.7%
activity at 2 µM [2]: 40.7%

COc1cccc(NC(=O)[C@H](C(C)C)n2c(=O)[nH]c3ccccc3c2=O)c1 [MMV665878]
activity at 2 µM [1]: 102%
activity at 2 µM [2]: 101%

CC(C)(C)C(=O)Nc1ccc(C(=O)Nc2cccc(-c3nc4ccccc4[nH]3)c2)cc1 [MMV665879]
activity at 2 µM [1]: 103%
activity at 2 µM [2]: 114%

COc1ccc(CNC(=O)c2cc3c(=O)n4ccccc4nc3n(CCc3ccccc3)c2=N)cc1 [MMV665881]
activity at 2 µM [1]: 104%
activity at 2 µM [2]: 98%

OC(CNC1CCCCC1)Cn1c2ccc(I)cc2c2cc(I)ccc21 (stereo not shown) [MMV665882]
activity at 2 µM [1]: 103%
activity at 2 µM [2]: 93.7%

O=C(Nc1cccc(-c2nc3ccccc3[nH]2)c1)c1cccc(NC(=O)c2ccco2)c1 [MMV665883]
activity at 2 µM [1]: 107%
activity at 2 µM [2]: 102%

CC(Oc1ccc(NC(=O)c2cccs2)cc1)C(=O)c1ccc(Cl)cc1 (stereo not shown) [MMV665886]
activity at 2 µM [1]: 86.9%
activity at 2 µM [2]: 84.1%

O=C(Nc1ccccc1O)c1ccc(Oc2cccc(C(=O)Nc3ccccc3O)c2)cc1 [MMV665888]
activity at 2 µM [1]: 102%
activity at 2 µM [2]: 104%

COc1ccc(-c2nonc2NC(=O)c2cccc(C)c2)cc1OC [MMV665890]
activity at 2 µM [1]: 104%
activity at 2 µM [2]: 113%
